Test results from ChEMBL document CHEMBL5331135, “Design, Synthesis, and Evaluation of Glucose Transporter Inhibitor-SN38 Conjugates for Targeting Colorectal Cancer” (J Med Chem, 2023).

How the values were obtained:
[1] = Stability in human plasma assessed as formation of carboxylate product measured for 72 hrs by RP-HPLC analysis; format: ADME, cell-free
[2] = Drug uptake in human COLO 205 cells assessed as drug internalization in presence of 4.5 g/L glucose by fluorescence based assay; format: ADME, cell-based
[3] = Prodrug conversion in lung of BALB/c mouse assessed as SN38 release at 40 mg/kg, iv measured after 4 hrs by UHPLC-MS/MS analysis; format: ADME, organism-based; conditions: in vivo
[4] = test system: Colorectal cancer cell; assay: Antitumor activity against AOM/DSS-induced orthotopic CRC BALB/c mouse model assessed as reduction in tumor area administered intravenously once every 2 days for 2 weeks by dissecting microscopic analysis; format: functional; conditions: dose 20-40 mg/kg, route iv
[5] = Toxicity in AOM/DSS-induced orthotopic CRC BALB/c mouse model assessed as lesions in liver at 20 to 40 mg/kg, iv administered once every 2 days for 2 weeks by H&E staining based analysis; format: organism-based; conditions: in vivo, 336 h, dose 20-40 mg/kg
[6] = Toxicity in AOM/DSS-induced orthotopic CRC BALB/c mouse model assessed as body weight loss at 40 mg/kg, iv administered once every 2 days for 2 weeks; format: organism-based; conditions: in vivo, 336 h
[7] = Toxicity in AOM/DSS-induced orthotopic CRC BALB/c mouse model assessed as lesions in stomach at 20 to 40 mg/kg, iv administered once every 2 days for 2 weeks by H&E staining based analysis; format: organism-based; conditions: in vivo, 336 h, dose 20-40 mg/kg
[8] = Toxicity in AOM/DSS-induced orthotopic CRC BALB/c mouse model assessed as lesions in spleen at 20 to 40 mg/kg, iv administered once every 2 days for 2 weeks by H&E staining based analysis; format: organism-based; conditions: in vivo, 336 h, dose 20-40 mg/kg
[9] = Stability in human plasma assessed as half life by RP-HPLC analysis; format: ADME, cell-free
[10] = Toxicity in AOM/DSS-induced orthotopic CRC BALB/c mouse model assessed as lesions in kidney at 20 to 40 mg/kg, iv administered once every 2 days for 2 weeks by H&E staining based analysis; format: organism-based; conditions: in vivo, 336 h, dose 20-40 mg/kg
[11] = test system: HCT-116; assay: Cytotoxicity against human HCT-116 cells incubated for 48 hrs by SRB assay; format: functional, cell-based; conditions: HCT-116, 48 h
[12] = test system: COLO 205; assay: Cytotoxicity against human COLO 205 cells incubated for 48 hrs by SRB assay; format: functional, cell-based; conditions: COLO 205, 48 h
[13] = Toxicity in AOM/DSS-induced orthotopic CRC BALB/c mouse model assessed as lesions in heart at 20 to 40 mg/kg, iv administered once every 2 days for 2 weeks by H&E staining based analysis; format: organism-based; conditions: in vivo, 336 h, dose 20-40 mg/kg
[14] = Antitumor activity against AOM/DSS-induced orthotopic CRC BALB/c mouse model assessed as reduction in tumor area at 40 mg/kg, iv administered once every 2 days for 2 weeks by dissecting microscopic analysis relative to control; format: functional, Colorectal cancer cell; set-up: scale not given: the % may be the effect or the level left
[15] = Prodrug conversion in buffer assessed as SN38 release at 1 uM measured for 2 hrs by UHPLC-MS/MS analysis; format: ADME
[16] = test system: HT-29; assay: Cytotoxicity against human HT-29 cells incubated for 48 hrs by SRB assay; format: functional, cell-based; conditions: HT-29, 48 h
[17] = Toxicity in AOM/DSS-induced orthotopic CRC BALB/c mouse model assessed as lesions in lung at 20 to 40 mg/kg, iv administered once every 2 days for 2 weeks by H&E staining based analysis; format: organism-based; conditions: in vivo, 336 h, dose 20-40 mg/kg
[18] = Toxicity in AOM/DSS-induced orthotopic CRC BALB/c mouse model assessed as lesions in liver at 15 mg/kg, iv administered once every 2 days for 2 weeks by H&E staining based analysis; format: organism-based; conditions: in vivo, 336 h
[19] = test system: HCT-116; assay: Cytotoxicity against human HCT-116 cells incubated for 48 hrs in presence of SN38 by SRB assay; format: functional, cell-based; conditions: HCT-116, 48 h
[20] = test system: COLO 205; assay: Cytotoxicity against human COLO 205 cells incubated for 48 hrs in presence of SN38 by SRB assay; format: functional, cell-based; conditions: COLO 205, 48 h
[21] = Toxicity in AOM/DSS-induced orthotopic CRC BALB/c mouse model assessed as lesions in heart at 15 mg/kg, iv administered once every 2 days for 2 weeks by H&E staining based analysis; format: organism-based; conditions: in vivo, 336 h
[22] = Toxicity in AOM/DSS-induced orthotopic CRC BALB/c mouse model assessed as body weight loss at 15 mg/kg, iv administered once every 2 days for 2 weeks; format: organism-based; conditions: in vivo, 336 h
[23] = Toxicity in AOM/DSS-induced orthotopic CRC BALB/c mouse model assessed as lesions in spleen at 15 mg/kg, iv administered once every 2 days for 2 weeks by H&E staining based analysis; format: organism-based; conditions: in vivo, 336 h
[24] = test system: HT-29; assay: Cytotoxicity against human HT-29 cells incubated for 48 hrs in presence of SN38 by SRB assay; format: functional, cell-based; conditions: HT-29, 48 h
[25] = Toxicity in AOM/DSS-induced orthotopic CRC BALB/c mouse model assessed as lesions in kidney at 15 mg/kg, iv administered once every 2 days for 2 weeks by H&E staining based analysis; format: organism-based; conditions: in vivo, 336 h
[26] = Toxicity in AOM/DSS-induced orthotopic CRC BALB/c mouse model assessed as lesions in lung at 15 mg/kg, iv administered once every 2 days for 2 weeks by H&E staining based analysis; format: organism-based; conditions: in vivo, 336 h
[27] = Toxicity in AOM/DSS-induced orthotopic CRC BALB/c mouse model assessed as lesions in stomach at 15 mg/kg, iv administered once every 2 days for 2 weeks by H&E staining based analysis; format: organism-based; conditions: in vivo, 336 h

CCc1c2c(nc3ccc(OCc4ccc(NC(=O)[C@H](CCCNC(N)=O)NC(=O)[C@@H](NC(=O)CCCCN5C(=O)CC(SCCOCCOCCOc6cc(O)c(C(=O)CCc7ccc(O)cc7)c(O)c6)C5=O)C(C)C)cc4)cc13)-c1cc3c(c(=O)n1C2)COC(=O)[C@]3(O)CC (stereo partly specified)
Stability [1]: Stable
Drug uptake [2]: Active
Drug metabolism [3]: Metabolite_Notdetected
Activity [4]: Dose-Dependent Effect
Activity [5]: Non-Toxic
Activity [6]: Non-Toxic
Activity [7]: Non-Toxic
Activity [8]: Non-Toxic
half-life [9]: 36 h
Activity [10]: Non-Toxic
IC50 [11]: 7.43 µM
IC50 [12]: 4.59 µM
Activity [13]: Non-Toxic
Activity [14]: 75%
Drug metabolism [15]: Not Active
IC50 [16]: > 100 µM
Activity [17]: Non-Toxic

CCc1c2c(nc3ccc(O)cc13)-c1cc3c(c(=O)n1C2)COC(=O)[C@]3(O)CC [7-ETHYL-10-HYDROXYCAMPTOTHECIN]
IC50 [11]: 0.0549 µM
IC50 [12]: 0.00075 µM
IC50 [16]: 0.43 µM

O=C(CCc1ccc(O)cc1)c1c(O)cc(O)cc1O[C@@H]1O[C@H](CO)[C@@H](O)[C@H](O)[C@H]1O [PHLORIZIN]
IC50 [11]: > 100 µM
IC50 [12]: > 100 µM
IC50 [16]: > 100 µM

O=C(CCc1ccc(O)cc1)c1c(O)cc(OCCOCCOCCS)cc1O[C@@H]1O[C@H](CO)[C@@H](O)[C@H](O)[C@H]1O
Activity [18]: Non-Toxic
IC50 [19]: 0.0454 µM
IC50 [20]: 0.14 µM
Activity [21]: Non-Toxic
IC50 [11]: > 100 µM
Activity [22]: Non-Toxic
IC50 [12]: > 100 µM
Activity [23]: Non-Toxic
IC50 [24]: 0.33 µM
Activity [25]: Non-Toxic
Activity [26]: Non-Toxic
Activity [27]: Non-Toxic
IC50 [16]: > 100 µM
